Experimental data as given in article PMC3914206.

Assays:
Type in all cases: binding
Conditions in all cases: Compound Concentration 10 µM
panel of 442 kinases [1] = target: T1, panel of 442 kinases (Homo sapiens, UniProt P07332)
T1 construct: purchased KINOMEscan
Description: (§1) We assessed the selectivity of members of this scaffold using the KINOMEscan methodology across a near comprehensive panel of 442 kinases [[18,27]].

panel of 442 kinases [2] = target: T2, panel of 442 kinases (Homo sapiens, UniProt Q16832)
T2 construct: purchased KINOMEscan
T2 sequence (Q16832 22-855): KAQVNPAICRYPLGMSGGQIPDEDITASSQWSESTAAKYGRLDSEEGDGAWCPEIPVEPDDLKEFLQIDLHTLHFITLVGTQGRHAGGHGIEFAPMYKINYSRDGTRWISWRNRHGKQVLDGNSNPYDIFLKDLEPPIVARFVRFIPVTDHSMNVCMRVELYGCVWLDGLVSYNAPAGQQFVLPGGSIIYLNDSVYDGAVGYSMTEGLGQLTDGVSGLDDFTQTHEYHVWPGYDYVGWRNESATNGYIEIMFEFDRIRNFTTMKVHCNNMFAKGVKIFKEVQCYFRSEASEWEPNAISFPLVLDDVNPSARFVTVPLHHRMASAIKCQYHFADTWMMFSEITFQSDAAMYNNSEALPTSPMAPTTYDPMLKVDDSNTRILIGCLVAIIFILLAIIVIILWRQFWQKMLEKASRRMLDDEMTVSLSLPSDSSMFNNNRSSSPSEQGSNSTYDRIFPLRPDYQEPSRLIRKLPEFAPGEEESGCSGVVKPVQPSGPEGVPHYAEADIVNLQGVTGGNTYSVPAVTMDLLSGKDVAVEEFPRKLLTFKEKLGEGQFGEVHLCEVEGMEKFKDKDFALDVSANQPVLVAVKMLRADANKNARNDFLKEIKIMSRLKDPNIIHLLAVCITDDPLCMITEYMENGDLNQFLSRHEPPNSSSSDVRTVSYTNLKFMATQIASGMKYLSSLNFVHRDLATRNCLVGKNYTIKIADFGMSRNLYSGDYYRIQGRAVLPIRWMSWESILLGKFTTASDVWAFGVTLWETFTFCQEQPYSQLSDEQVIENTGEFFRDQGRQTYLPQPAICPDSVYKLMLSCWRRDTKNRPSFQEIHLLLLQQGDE
Description: as §1

panel of 442 kinases [3] = target: T3, panel of 442 kinases (Homo sapiens, UniProt Q8N568)
T3 construct: purchased KINOMEscan
Description: as §1

T1 sequence (P07332 whole entry): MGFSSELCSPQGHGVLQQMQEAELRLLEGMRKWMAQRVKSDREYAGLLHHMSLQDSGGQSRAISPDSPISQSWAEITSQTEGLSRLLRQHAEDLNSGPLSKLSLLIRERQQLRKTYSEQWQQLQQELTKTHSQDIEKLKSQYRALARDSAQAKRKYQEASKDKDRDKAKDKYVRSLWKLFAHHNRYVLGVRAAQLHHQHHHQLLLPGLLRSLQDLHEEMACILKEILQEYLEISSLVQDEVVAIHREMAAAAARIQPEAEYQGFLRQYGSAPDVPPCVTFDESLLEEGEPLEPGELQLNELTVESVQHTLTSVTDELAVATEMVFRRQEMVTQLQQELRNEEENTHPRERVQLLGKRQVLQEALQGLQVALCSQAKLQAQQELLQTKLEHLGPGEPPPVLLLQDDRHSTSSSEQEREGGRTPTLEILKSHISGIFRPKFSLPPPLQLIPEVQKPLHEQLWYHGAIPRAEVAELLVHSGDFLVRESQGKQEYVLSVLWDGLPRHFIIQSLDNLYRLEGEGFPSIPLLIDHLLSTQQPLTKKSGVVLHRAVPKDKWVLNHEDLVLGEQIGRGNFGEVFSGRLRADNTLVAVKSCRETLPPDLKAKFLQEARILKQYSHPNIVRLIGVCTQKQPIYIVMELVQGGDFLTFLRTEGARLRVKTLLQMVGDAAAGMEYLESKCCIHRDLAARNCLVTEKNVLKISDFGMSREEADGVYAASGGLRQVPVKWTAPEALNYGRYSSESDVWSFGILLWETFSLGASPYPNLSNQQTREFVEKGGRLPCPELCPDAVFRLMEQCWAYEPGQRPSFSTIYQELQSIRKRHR
T3 sequence (Q8N568 whole entry): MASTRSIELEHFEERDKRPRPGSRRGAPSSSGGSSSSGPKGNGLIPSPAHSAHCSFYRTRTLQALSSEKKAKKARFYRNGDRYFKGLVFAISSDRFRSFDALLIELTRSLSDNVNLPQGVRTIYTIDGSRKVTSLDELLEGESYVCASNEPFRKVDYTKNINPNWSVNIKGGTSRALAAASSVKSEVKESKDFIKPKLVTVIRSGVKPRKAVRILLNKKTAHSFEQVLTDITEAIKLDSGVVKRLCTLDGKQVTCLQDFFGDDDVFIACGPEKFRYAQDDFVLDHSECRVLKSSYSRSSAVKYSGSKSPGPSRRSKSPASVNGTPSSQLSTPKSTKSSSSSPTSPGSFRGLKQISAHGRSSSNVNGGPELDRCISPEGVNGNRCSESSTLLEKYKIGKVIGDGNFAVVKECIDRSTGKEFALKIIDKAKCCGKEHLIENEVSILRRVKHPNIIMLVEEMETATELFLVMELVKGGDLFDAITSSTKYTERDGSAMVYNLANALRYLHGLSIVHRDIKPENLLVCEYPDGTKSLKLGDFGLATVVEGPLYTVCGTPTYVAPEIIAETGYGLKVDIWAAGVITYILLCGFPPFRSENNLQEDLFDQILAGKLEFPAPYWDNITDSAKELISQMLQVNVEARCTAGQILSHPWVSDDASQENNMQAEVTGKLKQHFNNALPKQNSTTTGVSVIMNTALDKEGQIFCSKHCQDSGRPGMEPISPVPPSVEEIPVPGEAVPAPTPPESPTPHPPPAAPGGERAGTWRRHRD

Row | SMILES | KINOMEscan: FES (panel of 442 kinases [1]) | KINOMEscan: DDR2 (panel of 442 kinases [2]) | KINOMEscan: DCAMKL2 (panel of 442 kinases [3])
1 | COc1cc(C(=O)N2CCC(N3CCN(C)CC3)CC2)ccc1Nc1ncc2c(n1)N(C1CCCC1)c1ccccc1C(=O)N2C [Compound 25, 11-cyclopentyl-2-((2-methoxy-4-(4-(4-methylpiperazin-1-yl)piperidine-1-carbonyl)phenyl)amino)-5-methyl-5H-benzo[e]pyrimido[5,4-b][1,4]diazepin-6(11H)-one] | 89 | 96 | 1.1
2 | CCOc1cc(C(=O)N2CCC(N3CCN(C)CC3)CC2)ccc1Nc1ncc2c(n1)N(C1CCCC1)c1ccccc1C(=O)N2C [Compound 26] | 100 | 81 | 3.6
3 | COc1cc(C(=O)N2CCC(N3CCN(C)CC3)CC2)ccc1Nc1ncc2c(n1)N1CCc3cccc(c31)C(=O)N2C [Compound 24] |  |  | 1.2
4 | COc1cc(C(=O)N2CCC(N3CCN(C)CC3)CC2)ccc1Nc1ncc2c(n1)N(C)c1ccccc1C(=O)N2C [15 (LRRK2-IN-1)] | 84 | 100 | 0.45
